Data reported in patent publication US11340216B2, “Methods and compositions for the positive selection of protein destabilizers” (Dana-Farber Cancer Institute, Inc., priority 2016, dated 2022).

What was measured:
[1] = test system: dCK-IKZF3 fusion protein; assay: BVdU sensitivity and pomalidomide rescue, cell count by Vi-Cell, cells expressing dCK-IKZF3 fusion; assay type: cell-based; conditions: 2 μM pomalidomide, 100 μM BVdU, counted day 5, FIG. 7
Procedure: (§1) To assess the validity of the proposed positive selection system, a set of experiments was devised according to the technique outlined in FIG. 6. On day −2, 1×10^6 cells were seeded into a 6 cm dish with 4 mL of DMEM culture media. On day −1, 30,000 cells were seeded per well of a 6 well plate in DMEM media, and on day 0, media were replaced with DMEM media supplemented with decreasing concentrations of BVdU, generated by serial dilution. From days 0-4, media were replaced daily, and on day 5, cells were counted by Vi-Cell. For pomalidomide rescue experiments, the cells were seeded as described above, but from day −2 onwards, were maintained in DMEM media supplemented with 2 μM pomalidomide (Selleck Chemicals).

[2] = target: T1, deoxycytidine kinase (dCK) (Homo sapiens, UniProt P27707); assay: BVdU sensitivity and pomalidomide rescue, cell count by Vi-Cell, cells expressing unfused dCK; assay type: cell-based; conditions: 2 μM pomalidomide, BVdU dose-response, FIG. 8
T1 construct: V5 (only if expressed from the GFP vector); expressed in transfected cells
Procedure: as §1

[3] = test system: dCK-IKZF3 fusion protein; assay: Competition assay, dCK-IKZF3 GFP cells mixed with dCK tdTomato cells, flow cytometry; assay type: cell-based; conditions: 2 μM pomalidomide plus 100 μM BVdU, 14 days, FIG. 22
From the text: Next, a competition assay was devised using dCK and CK-IKZF constructs (FIG. 21). In these experiments, cells expressing dCK-IKZF fusion protein and GFP were mixed with cells expressing dCK and tdTomato. In the presence of BVdU, cells expressing either construct would be capable of generating the cytotoxic product. However, upon the addition of an IMiD (pomalidomide), dCK-IKZF fusion protein would be destabilized, allowing outgrowth of GFP+ cells. dCK-IKZF3 cells labeled with GFP were mixed with dCK cells labeled with tdTomato at a ratio of 1:99 and on day −2, were plated into 6 well plates at 100,000 cells/well in triplicate. On Day −1, the “Mock” and “BVdU” wells were treated with DMSO, and the “pomalidomide” well was treated with 2 μM pomalidomide. On day 0, the “Mock” well was treated with DMSO, while the “BVdU” well was treated with 100 μM BVdU, and the “pomalidomide” well received 2 μM pomalidomide and 100 μM BvDU. Cells were split, re-seeded to maintain cell density, treated with the appropriate drugs and analyzed by flow cytometry every 3 days.

[4] = test system: DCK-IKZF1-IRES-GFP in 293T cells; assay: Pilot drug screen, up assay, 384 well, GFP fluorescence converted to Z-statistic; assay type: cell-based; conditions: ~25 μM library drug, BVdU Day 1, read Day 5, FIG. 24
Procedure: Columns 1, 23, and 24 of the plate shown in FIG. 23 (right) were treated with DMSO, Pomalidomide, and Dipyridamole, respectively, while each well in Columns 2-22 was treated with an individual drug (concentration=˜25 μM) from a library of approximately 550 bioactive chemicals. On Day 1, Column 1 was treated with DMSO, and Columns 2-24 were treated with BVdU. On Day 5, GFP fluorescence in each well was quantified using an Acumen Laser Cytometer.

[5] = test system: DCK-IKZF1-IRES-GFP in 293T cells; assay: Up assay with limited drug library of approximately 700 compounds; assay type: cell-based; conditions: ~700 compound library, BVdU on Day 2, read Day 5, FIG. 25
Procedure: For the up assay experiment, 293T cells stably infected to produce DCK-IKZF1-IRES-GFP were seeded in three 384 well plates on Day 0. Each well on each plate received a library drug from a ˜700 compound drug library, and BVdU on Day 2.

[6] = test system: DCK-IKZF1-IRES-GFP; assay: Same-well assay, 1:1 mixture of DCK-IRES-Tomato and DCK-IKZF1-IRES-GFP 293T stables, GFP/Tomato ratio; assay type: cell-based; conditions: BVdU exposure, FIG. 28
Procedure: However, exposure of the cells to Pomalidomide and subsequent BVdU exposure specifically rescues the DCK-IKZF1-IRES-GFP population and increases the GFP/Tomato ratio.
This assay was deployed in a proof of concept experiment with a small library of ˜88 engineered IMiD derivatives and plated at 10 serial dilutions ranging from 10 μM to 300 pM.

[7] = test system: IKZF3 and IKZF3 fusion proteins; conditions: 2 μM or 20 μM Pomalidomide, FIG. 5
Procedure: HEK-293FT (Invitrogen) cells were maintained in DMEM medium supplemented with 10% FBS, 100 U/mL Penicillin and 100 μg/mL streptomycin. Stable cell lines were established by lentiviral infection followed by growth in media containing 10 μg/mL blasticidin, followed by fluorescence activated cell sorting to collect GFP-expressing cells.
On day 0, 250,000 cells were seeded into each of three wells of a 6-well plate. […] Cells were washed twice with ice-cold PBS and harvested in EBC Lysis Buffer supplemented with 1× protease inhibitor (Roche). Whole cell extracts were resolved by SDS-PAGE, transferred onto a nitrocellulose membrane, and probed with indicated primary antibodies.

[8] = target: T2, IKZF1-Firefly luciferase protein in 293T cells (UniProt P08659+Q13422+Q96SW2); assay: Down assay, Firefly/Renilla luciferase ratio; assay type: cell-based; conditions: read Day 5, FIG. 26
T2 construct: expressed in transfected cells; host or cells: 293T, stably infected
Procedure: A down assay experiment was conducted in parallel with the up assay experiment. For the down assay experiment, 293T cells stably infected to produce the IKZF1-Firefly luciferase protein as well as the Renilla luciferase protein from a single mRNA transcript were treated as described in the “Up” Assay. On Day 5, for each plate, Firefly and Renilla luciferase signals were quantified, and the Firefly/Renilla ratio calculated for each well and converted to a Z-statistic and plotted (FIG. 26). The hits noted in the “Up Assay” have been labeled in FIG. 25 and FIG. 26 to allow for comparison between the two assays.

[9] = test system: EV-GFP / dCK-Tomato cell mixture; assay: Cell mixing (bystander effect) assay, EV-GFP cells with dCK-Tomato cells, flow cytometry; assay type: cell-based; conditions: 100 μM BVdU, 100,000 cells/well, start 8% EV-GFP
From the text: The scheme depicted in FIG. 14 generally describes the bystander effect assay in the context of dCK positive selection systems. Cells expressing dCK and tomato fluorescent protein (Td) are mixed with cells having empty vector (EV) and green fluorescent protein (GFP). When cultured with BVdU, cells expressing dCK are expected to convert the nucleotide analog into a product that elicits cytotoxicity, resulting in outgrowth of resistant cells (EV-GFP) as measured by relative GFP/Td fluorescence in the absence of significant bystander killing.
The effects of cell density in cell mixture experiments were examined. EV-GFP cells were mixed together with dCK-Tomato cells in a ratio of 1:9, and the resulting mixture of cells was plated in 6 well plates at 500,000 cells/well, 250,000 cells/well, and 100,000 cells/well, with two wells plated per cell density (FIG. 15). For each cell density, one well received 100 μM BVdU, and the other an equivalent amount of DMSO. Cells were split and re-seeded every 72 hours, to preserve cell density, and analyzed by flow cytometry to quantify the fraction of GFP and Tomato-labeled cells.

T2 sequence (Q13422+P08659 fused): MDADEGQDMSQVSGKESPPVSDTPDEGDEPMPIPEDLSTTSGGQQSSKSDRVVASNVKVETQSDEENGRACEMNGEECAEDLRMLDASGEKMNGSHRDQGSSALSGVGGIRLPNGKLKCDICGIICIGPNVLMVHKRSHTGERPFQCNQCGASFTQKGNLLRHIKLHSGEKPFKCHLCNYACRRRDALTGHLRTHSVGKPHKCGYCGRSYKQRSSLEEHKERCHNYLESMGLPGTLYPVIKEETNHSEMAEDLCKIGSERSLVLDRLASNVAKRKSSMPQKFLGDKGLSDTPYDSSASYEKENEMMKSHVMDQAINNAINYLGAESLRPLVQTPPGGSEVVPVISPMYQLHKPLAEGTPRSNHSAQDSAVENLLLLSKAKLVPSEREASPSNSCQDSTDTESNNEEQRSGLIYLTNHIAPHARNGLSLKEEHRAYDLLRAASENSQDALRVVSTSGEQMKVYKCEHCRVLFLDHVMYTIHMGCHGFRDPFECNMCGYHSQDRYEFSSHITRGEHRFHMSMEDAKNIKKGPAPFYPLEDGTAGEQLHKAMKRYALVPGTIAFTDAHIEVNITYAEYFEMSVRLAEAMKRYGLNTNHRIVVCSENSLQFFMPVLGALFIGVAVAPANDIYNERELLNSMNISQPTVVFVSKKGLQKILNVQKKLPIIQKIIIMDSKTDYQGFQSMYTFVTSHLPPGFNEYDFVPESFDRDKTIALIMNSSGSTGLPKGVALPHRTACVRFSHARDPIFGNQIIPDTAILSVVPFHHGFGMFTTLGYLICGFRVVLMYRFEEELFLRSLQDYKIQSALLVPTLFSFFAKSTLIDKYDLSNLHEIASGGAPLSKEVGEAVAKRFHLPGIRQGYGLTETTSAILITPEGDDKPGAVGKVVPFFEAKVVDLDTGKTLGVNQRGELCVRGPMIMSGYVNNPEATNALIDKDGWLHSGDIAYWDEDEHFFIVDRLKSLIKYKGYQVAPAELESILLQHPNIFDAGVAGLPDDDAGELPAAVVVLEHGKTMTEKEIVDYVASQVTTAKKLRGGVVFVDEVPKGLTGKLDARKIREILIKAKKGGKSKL
T2 sequence (Q96SW2 whole entry): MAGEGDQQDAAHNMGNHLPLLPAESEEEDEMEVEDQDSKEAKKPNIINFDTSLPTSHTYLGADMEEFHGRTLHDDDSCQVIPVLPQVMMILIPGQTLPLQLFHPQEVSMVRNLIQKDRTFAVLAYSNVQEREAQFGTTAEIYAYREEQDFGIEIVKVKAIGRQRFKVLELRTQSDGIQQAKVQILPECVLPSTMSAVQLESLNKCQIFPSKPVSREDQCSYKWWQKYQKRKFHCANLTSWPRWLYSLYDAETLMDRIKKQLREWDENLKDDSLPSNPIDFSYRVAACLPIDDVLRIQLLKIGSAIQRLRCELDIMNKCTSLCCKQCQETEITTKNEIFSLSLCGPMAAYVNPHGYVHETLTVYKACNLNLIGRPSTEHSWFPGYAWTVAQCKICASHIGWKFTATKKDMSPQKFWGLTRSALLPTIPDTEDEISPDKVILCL
T2 sequence (Q16531 whole entry partner): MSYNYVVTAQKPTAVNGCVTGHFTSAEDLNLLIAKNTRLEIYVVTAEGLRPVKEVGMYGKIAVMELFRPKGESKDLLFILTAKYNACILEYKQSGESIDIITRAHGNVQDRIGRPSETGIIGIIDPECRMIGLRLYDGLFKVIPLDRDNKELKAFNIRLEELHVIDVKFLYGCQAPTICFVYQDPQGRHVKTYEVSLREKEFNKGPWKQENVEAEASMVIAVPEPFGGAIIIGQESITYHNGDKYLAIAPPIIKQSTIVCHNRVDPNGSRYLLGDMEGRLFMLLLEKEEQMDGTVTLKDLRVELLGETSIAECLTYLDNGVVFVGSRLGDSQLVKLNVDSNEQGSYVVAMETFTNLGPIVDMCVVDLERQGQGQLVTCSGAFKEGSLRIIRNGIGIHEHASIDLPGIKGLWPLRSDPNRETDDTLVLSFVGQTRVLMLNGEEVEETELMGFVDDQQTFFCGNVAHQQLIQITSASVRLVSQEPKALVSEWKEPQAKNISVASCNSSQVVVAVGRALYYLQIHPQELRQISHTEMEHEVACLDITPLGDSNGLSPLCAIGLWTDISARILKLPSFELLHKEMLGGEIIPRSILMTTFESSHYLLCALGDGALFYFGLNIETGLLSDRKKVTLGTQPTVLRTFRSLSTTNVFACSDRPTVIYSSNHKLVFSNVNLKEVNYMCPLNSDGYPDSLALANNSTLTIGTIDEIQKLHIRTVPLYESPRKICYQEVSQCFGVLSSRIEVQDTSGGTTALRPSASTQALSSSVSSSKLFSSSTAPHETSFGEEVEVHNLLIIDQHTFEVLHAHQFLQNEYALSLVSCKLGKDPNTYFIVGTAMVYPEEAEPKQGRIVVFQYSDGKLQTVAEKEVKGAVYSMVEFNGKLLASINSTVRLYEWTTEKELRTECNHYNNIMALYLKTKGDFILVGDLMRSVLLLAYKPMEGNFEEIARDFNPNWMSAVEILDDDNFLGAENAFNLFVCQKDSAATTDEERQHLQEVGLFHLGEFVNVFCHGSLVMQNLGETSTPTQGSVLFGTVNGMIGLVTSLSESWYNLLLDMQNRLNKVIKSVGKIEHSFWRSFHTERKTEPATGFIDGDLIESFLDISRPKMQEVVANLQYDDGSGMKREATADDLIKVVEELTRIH
T1 sequence (P27707 whole entry, species assumed, the tested form may be a part): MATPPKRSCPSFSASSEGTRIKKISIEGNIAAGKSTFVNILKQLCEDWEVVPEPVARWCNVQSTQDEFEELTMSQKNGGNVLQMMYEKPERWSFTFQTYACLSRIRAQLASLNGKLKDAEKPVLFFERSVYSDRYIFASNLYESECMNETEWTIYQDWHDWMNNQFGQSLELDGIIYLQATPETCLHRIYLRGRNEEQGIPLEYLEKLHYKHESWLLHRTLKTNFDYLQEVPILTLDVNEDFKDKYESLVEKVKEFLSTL

Nc1cccc2c1C(=O)N(C1CCC(=O)NC1=O)C2=O (stereo not shown) [Pomalidomide, pomalidomide]
Rescue of cell viability from BVdU in cells expressing the fusion construct (CK-IKZF+Pom) [1]: partial rescue and cell growth
Rescue from BVdU in cells expressing enzyme only (DCK+Pom) [2]: rescue did not occur
Outgrowth of GFP+ (dCK-IKZF3) cells from 1% initial population [3]: allowed for outgrowth of GFP+cells
Hit classification in pilot up-assay screen (GFP Z-statistic) [4]: true-positive hits
Hit classification in up assay (GFP Z-statistic) [5]: true-positive hits
Classification by GFP and GFP/Tomato ratio in the same well [6]: true positive
Cellular levels of IKZF3 and IKZF3 fusion proteins [7]: highly sensitive

Cc1cn([C@H]2C[C@H](O)[C@@H](CO)O2)c(=O)[nH]c1=O [Thymidine]
Hit classification in up assay (GFP Z-statistic) [5]: assay positive
Hit classification in down assay (Firefly/Renilla ratio Z-statistic) [8]: does not score

O=c1[nH]c(=O)n([C@H]2C[C@H](O)[C@@H](CO)O2)cc1/C=C/Br [BVdU, bromovinyl-deoxyuridine]
EV-GFP cells as fraction of the cell mixture ([9]; day 3): 29%
EV-GFP cells as fraction of the cell mixture ([9]; day 7): 88%

OCCN(CCO)c1nc(N2CCCCC2)c2nc(N(CCO)CCO)nc(N3CCCCC3)c2n1 [Dipyridamole, dipyridamole]
Hit classification in pilot up-assay screen (GFP Z-statistic) [4]: non-specific hits
Classification by GFP and GFP/Tomato ratio in the same well [6]: assay positive
